Data set [1] concerns Staphylococcus aureus ATCC 43300 (MRSA). Briefly: Antimicrobial MIC assay (CO-ADD) against S. aureus MRSA. The class given is cell-based. Particulars: Staphylococcus aureus, read-out: MIC S.a. From the text:
(§1) Antimicrobial evaluation against S. aureus (MRSA) (ATCC 43300), E. coli (ATCC 25922), K. pneumoniae (ATCC 700603), A. baumannii (ATCC 19606), C. albicans (ATCC 90028), and C. neoformans (ATCC 208821) was undertaken at the Community for Open Antimicrobial Drug Discovery at The University of Queensland (Australia) according to their standard protocols as reported previously.

Data set [2] relates to Escherichia coli ATCC 25922. Briefly: Antimicrobial MIC assay (CO-ADD) against E. coli. Format: cell-based. As to conditions: Escherichia coli, ATCC25922, read-out: MIC E.c.
From the text: as §1

In data set [3] the test system is Klebsiella pneumoniae ATCC 700603. Briefly: Antimicrobial MIC assay (CO-ADD) against K. pneumoniae. Format: cell-based. Particulars: Klebsiella pneumoniae, ATCC700603, read-out: MIC K.p.
From the text: as §1

In data set [4] the test system is Pseudomonas aeruginosa ATCC 27853. Briefly: Antimicrobial MIC assay (CO-ADD) against P. aeruginosa. Format: cell-based. Particulars: Pseudomonas aeruginosa, ATCC27853, read-out: MIC P.a.
The subject of data set [5] is Acinetobacter baumannii ATCC 19606. Briefly: Antimicrobial MIC assay (CO-ADD) against A. baumannii. Format: cell-based. As to conditions: Acinetobacter baumannii, ATCC19606, read-out: MIC A.b.
From the text: as §1

In data set [6] the test system is Candida albicans ATCC 90028. Briefly: Antimicrobial MIC assay (CO-ADD) against C. albicans. Format: cell-based. As to conditions: mean (n = 2).
From the text: as §1

In data set [7] the test system is Cryptococcus neoformans ATCC 208821. Briefly: Antimicrobial MIC assay (CO-ADD) against C. neoformans. Format: cell-based.
From the text: as §1

A short description of data set [8]: Cytotoxicity assay on HEK293. Format: cell-based, human. As to conditions: human, HEK293 human embryonic kidney cells; concentration at 50% cytotoxicity on HEK293; mean (n = 2); top dose tested 32 μg/mL. On the procedure:
Cytotoxicity assays were conducted using the protocols previously reported.

The next data set relates to human red blood cells. Briefly: Hemolytic assay. Format: cell-based. Particulars: concentration at 10% hemolytic activity on human red blood cells; mean (n = 2); top dose tested 32 μg/mL. On the procedure:
Hemolytic assays were conducted using the protocols previously reported.

Where [9] appears, read: Candida albicans, ATCC90028, read-out: MIC C.a., Candida albicans ATCC 90028.
The mark [10] stands for this setting: Cryptococcus neoformans, ATCC208821, read-out: MIC C.n.

Experimental findings from paper PMC9951859, “Investigation of α,ω-Disubstituted Polyamine-Cholic Acid Conjugates Identifies Hyodeoxycholic and Chenodeoxycholic Scaffolds as Non-Toxic, Potent Antimicrobials” (Antibiotics, 2023) are described below.

≈ marks a conversion by molar mass, not a printed value. Like-named read-outs stand apart in the source and are kept apart here. Bounds are passed on as bounds.

Usually MIC stands for the smallest concentration in the dilution series that meets the test's criterion for growth inhibition. For `CN[C@H](CC(C)C)C(=O)N[C@H]1C(=O)N[C@@H](CC(N)=O)C(=O)N[C@H]2C(=O)N[C@H]3C(=O)N[C@H](C(=O)N[C@H](C(=O)O)c4cc(O)cc(O)c4-c4cc3ccc4O)[C@H](O)c3ccc(c(Cl)c3)Oc3cc2cc(c3O[C@@H]2O[C@H](CO)[C@@H](O)[C@H](O)[C@H]2O[C@H]2C[C@](C)(N)[C@H](O)[C@H](C)O2)Oc2ccc(cc2Cl)[C@H]1O` [vancomycin, reference compound], the MIC in data set [1] came to 0.7 µM (≈ 1.01 µg/mL).

As a reminder, the IC50 is the midpoint of a concentration-inhibition curve. `C[C@H](CCC(=O)NCCCNCCCCCCCNCCCNC(=O)CC[C@@H](C)[C@H]1CC[C@H]2[C@@H]3[C@@H](O)C[C@@H]4C[C@H](O)CC[C@]4(C)[C@H]3CC[C@]12C)[C@H]1CC[C@H]2[C@@H]3[C@@H](O)C[C@@H]4C[C@H](O)CC[C@]4(C)[C@H]3CC[C@]12C.O=C(O)C(F)(F)F.O=C(O)C(F)(F)F` [Compound 8c, N^1,N^7-Bis(3-((R)-4-((3R,5S,7S,8R,9S,10S,13R,14S,17R)-3,7-dihydroxy-10,13-dimethylhexadecahydro-1H-cyclopenta[a]phenanthren-17-yl)pentanamido)propyl)heptane-1,7-diaminium 2,2,2-trifluoroacetate]: the minimal inhibitory concentration (MIC) in data set [1] was no more than 0.21 µM; in data set [2] it was greater than 26 µM; in data set [3] it was greater than 26 µM; in data set [4] it was greater than 26 µM; in data set [5] it was greater than 26 µM; in data set [6] (setting [9]), 13 µM. Also, the MIC in [7] (setting [10]) was 26 µM. Moreover, the IC50 in data set [8] is greater than 26 µM. In the data set with human red blood cells, the “Hemolysis (HC10)” value stood at 11 µM.

Consider `OC(Cn1cncn1)(Cn1cncn1)c1ccc(F)cc1F` [fluconazole, reference compound], for which the MIC in data set [6] (ATCC90028, Candida albicans ATCC 90028, read-out: MIC C.a.) came to 0.4 µM (≈ 0.123 µg/mL); in data set [7] (ATCC208821, Cryptococcus neoformans ATCC 208821, mean (n = 2), read-out: MIC C.n.), 26 µM (≈ 7.96 µg/mL).

In turn, `CC/C(=C(\c1ccccc1)c1ccc(OCCN(C)C)cc1)c1ccccc1` [Tamoxifen, reference compound] gave an IC50 in data set [8] of 24 µM.

For `C[C@H](CCC(=O)NCCCNCCCCNCCCNC(=O)CC[C@@H](C)[C@H]1CC[C@H]2[C@@H]3[C@@H](O)C[C@@H]4C[C@H](O)CC[C@]4(C)[C@H]3CC[C@]12C)[C@H]1CC[C@H]2[C@@H]3[C@@H](O)C[C@@H]4C[C@H](O)CC[C@]4(C)[C@H]3CC[C@]12C.O=C(O)C(F)(F)F.O=C(O)C(F)(F)F` [Compound 8a, N^1,N^4-Bis(3-((R)-4-((3R,5S,7S,8R,9S,10S,13R,14S,17R)-3,7-dihydroxy-10,13-dimethylhexadecahydro-1H-cyclopenta[a]phenanthren-17-yl)pentanamido)propyl)butane-1,4-diaminium 2,2,2-trifluoroacetate], the MIC in [1] was 27 µM; in data set [2] it was greater than 27 µM; in data set [3], greater than 27 µM; in data set [4], greater than 27 µM; in data set [5] it was greater than 27 µM; in data set [6] (setting [9]), 27 µM. The MIC in [7] (setting [10]) is greater than 27 µM. The same compound had an IC50 in data set [8] greater than 27 µM. In the data set with human red blood cells, the “Hemolysis (HC10)” value worked out at 7.3 µM.

As for `C[C@H](CCC(=O)NCCCNCCCCCCCCCCCCNCCCNC(=O)CC[C@@H](C)[C@H]1CC[C@H]2[C@@H]3C[C@H](O)[C@@H]4C[C@H](O)CC[C@]4(C)[C@H]3CC[C@]12C)[C@H]1CC[C@H]2[C@@H]3C[C@H](O)[C@@H]4C[C@H](O)CC[C@]4(C)[C@H]3CC[C@]12C.O=C(O)C(F)(F)F.O=C(O)C(F)(F)F` [Compound 7f, N^1,N^12-Bis(3-((R)-4-((3R,5R,6S,8S,9S,10R,13R,14S,17R)-3,6-dihydroxy-10,13-dimethylhexadecahydro-1H-cyclopenta[a]phenanthren-17-yl)pentanamido)propyl)dodecane-1,12-diaminium 2,2,2-trifluoroacetate], the MIC in data set [1] was no more than 0.19 µM; in data set [2] it was greater than 25 µM; in [3], greater than 25 µM; in data set [4] it was greater than 25 µM; in data set [5] it was greater than 25 µM; in data set [6] (setting [9]), no more than 0.2 µM. Further, the MIC in data set [7] (setting [10]) was no more than 0.19 µM. For the same compound, inhibition in data set [8] was half-maximal at 25 µM (IC50). The “Hemolysis (HC10)” value in the data set on human red blood cells was greater than 25 µM.

For the compound `C[C@H](CCC(=O)NCCCNCCCCCCNCCCNC(=O)CC[C@@H](C)[C@H]1CC[C@H]2[C@@H]3[C@@H](O)C[C@@H]4C[C@H](O)CC[C@]4(C)[C@H]3CC[C@]12C)[C@H]1CC[C@H]2[C@@H]3[C@@H](O)C[C@@H]4C[C@H](O)CC[C@]4(C)[C@H]3CC[C@]12C.O=C(O)C(F)(F)F.O=C(O)C(F)(F)F` [Compound 8b, N^1,N^6-Bis(3-((R)-4-((3R,5S,7S,8R,9S,10S,13R,14S,17R)-3,7-dihydroxy-10,13-dimethylhexadecahydro-1H-cyclopenta[a]phenanthren-17-yl)pentanamido)propyl)hexane-1,6-diaminium 2,2,2-trifluoroacetate], the MIC in [1] is 1.7 µM; in data set [2], greater than 26 µM; in [3] it was greater than 26 µM; in data set [4], greater than 26 µM; in data set [5], greater than 26 µM; in data set [6] (setting [9]), 27 µM. Besides, the MIC in data set [7] (setting [10]) is greater than 27 µM. In [8], the IC50 was greater than 27 µM. Also, the “Hemolysis (HC10)” value in the data set with human red blood cells was found to be 11 µM.

Regarding `C[C@H](CCC(=O)NCCCNCCCCCCCCCCNCCCNC(=O)CC[C@@H](C)[C@H]1CC[C@H]2[C@@H]3[C@@H](O)C[C@@H]4C[C@H](O)CC[C@]4(C)[C@H]3CC[C@]12C)[C@H]1CC[C@H]2[C@@H]3[C@@H](O)C[C@@H]4C[C@H](O)CC[C@]4(C)[C@H]3CC[C@]12C.O=C(O)C(F)(F)F.O=C(O)C(F)(F)F` [Compound 8e, N^1,N^10-Bis(3-((R)-4-((3R,5S,7S,8R,9S,10S,13R,14S,17R)-3,7-dihydroxy-10,13-dimethylhexadecahydro-1H-cyclopenta[a]phenanthren-17-yl)pentanamido)propyl)decane-1,10-diaminium 2,2,2-trifluoroacetate], the MIC in [1] was no more than 0.2 µM; in data set [2], greater than 25 µM; in [3] it was greater than 25 µM; in data set [4] it was greater than 25 µM; in [5], greater than 25 µM; in data set [6] (setting [9]), 3.2 µM. The MIC in data set [7] (setting [10]) is 1.6 µM. In addition, in data set [8], the IC50 is greater than 25 µM. The “Hemolysis (HC10)” value with human red blood cells is 3.3 µM.

As for `C[C@H](CCC(=O)NCCCNCCCCCCCCNCCCNC(=O)CC[C@@H](C)[C@H]1CC[C@H]2[C@@H]3[C@@H](O)C[C@@H]4C[C@H](O)CC[C@]4(C)[C@H]3CC[C@]12C)[C@H]1CC[C@H]2[C@@H]3[C@@H](O)C[C@@H]4C[C@H](O)CC[C@]4(C)[C@H]3CC[C@]12C.O=C(O)C(F)(F)F.O=C(O)C(F)(F)F` [Compound 8d, N^1,N^8-Bis(3-((R)-4-((3R,5S,7S,8R,9S,10S,13R,14S,17R)-3,7-dihydroxy-10,13-dimethylhexadecahydro-1H-cyclopenta[a]phenanthren-17-yl)pentanamido)propyl)octane-1,8-diaminium 2,2,2-trifluoroacetate], the minimum inhibitory concentration (MIC) in data set [1] was no more than 0.2 µM; in [2], greater than 26 µM; in data set [3], greater than 26 µM; in data set [4] it was greater than 26 µM; in [5], greater than 26 µM; in [6] (setting [9]), 26 µM. Moreover, the MIC in [7] (setting [10]) was determined as 13 µM. In addition, the IC50 in [8] was greater than 26 µM. Also, the “Hemolysis (HC10)” value in the data set with human red blood cells amounted to 5.6 µM.

As to `C[C@H](CCC(=O)NCCCNCCCCCCNCCCNC(=O)CC[C@@H](C)[C@H]1CC[C@H]2[C@@H]3C[C@H](O)[C@@H]4C[C@H](O)CC[C@]4(C)[C@H]3CC[C@]12C)[C@H]1CC[C@H]2[C@@H]3C[C@H](O)[C@@H]4C[C@H](O)CC[C@]4(C)[C@H]3CC[C@]12C.O=C(O)C(F)(F)F.O=C(O)C(F)(F)F` [Compound 7b, N^1,N^6-Bis(3-((R)-4-((3R,5R,6S,8S,9S,10R,13R,14S,17R)-3,6-dihydroxy-10,13-dimethylhexadecahydro-1H-cyclopenta[a]phenanthren-17-yl)pentanamido)propyl)hexane-1,6-diaminium 2,2,2-trifluoroacetate], the MIC in data set [1] is no more than 0.21 µM; in data set [2], greater than 26 µM; in data set [3] it was greater than 26 µM; in data set [4], greater than 26 µM; in data set [5], greater than 26 µM; in data set [6] (setting [9]), 13 µM. Moreover, the MIC in data set [7] (setting [10]) was no more than 0.21 µM. In [8], this compound registered an IC50 greater than 26 µM. Further, the “Hemolysis (HC10)” value in the data set with human red blood cells is greater than 26 µM.
